According to PubChem BioAssay (NCI):
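Growth conditions: 96-well plates. Treatment: test compound, 48 hours, 5 concentrations. Analysis: linear interpolation between bracketing concentrations; unreached endpoints set to highest concentration. TGI: total growth inhibition.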

What was measured:
Assay in all cases: growth of human tumour cells (NCI), 48 h
CCRF-CEM leukemia = test system: CCRF-CEM leukemia
NCI-H226 lung = test system: NCI-H226 lung
UACC-62 melanoma = test system: UACC-62 melanoma
HCC-2998 colon = test system: HCC-2998 colon
ACHN renal = test system: ACHN renal
HOP-92 NSCLC = test system: HOP-92 NSCLC
786-0 renal = test system: 786-0 renal
TK-10 renal = test system: TK-10 renal
UACC-257 melanoma = test system: UACC-257 melanoma
MALME-3M melanoma = test system: MALME-3M melanoma
NCI-H23 lung = test system: NCI-H23 lung
SK-OV-3 ovarian = test system: SK-OV-3 ovarian
HT29 colon = test system: HT29 colon
A549 NSCLC = test system: A549 NSCLC
SNB-19 CNS = test system: SNB-19 CNS
SR leukemia = test system: SR leukemia
SNB-75 CNS = test system: SNB-75 CNS
HCT-15 colon = test system: HCT-15 colon
CAKI-1 renal = test system: CAKI-1 renal

Row | SMILES | TGI (CCRF-CEM leukemia) [µM] | TGI (NCI-H226 lung) [µM] | TGI (UACC-62 melanoma) [µM] | TGI (HCC-2998 colon) [µM] | TGI (ACHN renal) [µM] | TGI (HOP-92 NSCLC) [µM] | TGI (786-0 renal) [µM] | TGI (TK-10 renal) [µM] | TGI (UACC-257 melanoma) [µM] | TGI (MALME-3M melanoma) [µM] | TGI (NCI-H23 lung) [µM] | TGI (SK-OV-3 ovarian) [µM] | TGI (HT29 colon) [µM] | TGI (A549 NSCLC) [µM] | TGI (SNB-19 CNS) [µM] | TGI (SR leukemia) [µM] | TGI (SNB-75 CNS) [µM] | TGI (HCT-15 colon) [µM] | TGI (CAKI-1 renal) [µM]
1 | CCOC(=O)C(C(=O)OCC)S(C)(=O)=O | > 100 | > 100 | > 100 | > 100 | > 100 | > 100 | > 100 | > 100 | > 100 | > 100 | > 100 | > 100 | > 100 | > 100 | > 100 | > 100 |  |  | 
2 | CCOC(=O)C1=C(C)C2C3C(=O)OC(=O)C3C1(C)C1C(=O)OC(=O)C21 (stereo not given) | > 100 | > 100 | > 100 | > 100 | > 100 | > 100 | > 100 | > 100 | > 100 | > 100 | > 100 | > 100 | > 100 | > 100 | > 100 |  | > 100 | > 100 | 
3 | CN(CCO)c1nc(=O)c2c(n1C1OC(CO)C(O)C(O)C1O)CCCC2 (stereo not given) | > 100 | > 100 | > 100 | > 100 | > 100 | > 100 | > 100 | > 100 | > 100 | > 100 | > 100 | > 100 | > 100 | > 100 | > 100 | > 100 | > 100 | > 100 | > 100
4 | O=C1CS(=O)c2ccccc2N1 (stereo not given) | > 100 | > 100 | > 100 | > 100 | > 100 | > 100 | > 100 | > 100 | > 100 | > 100 | > 100 | > 100 | > 100 | > 100 | > 100 | > 100 | > 100 | > 100 | > 100
5 | O=S1(=O)OCCOS(=O)(=O)C1(Br)Br | > 100 | 94.1 | > 100 | > 100 |  | > 100 | > 100 | > 100 | > 100 | > 100 | > 100 | > 100 | > 100 | > 100 | > 100 | > 100 | > 100 |  | > 100
6 | C/C(CC(=O)Nc1cccc([N+](=O)[O-])c1)=N/NC(N)=S | > 100 | > 100 | > 100 | > 100 | > 100 | > 100 | > 100 | > 100 | > 100 | > 100 | > 100 | > 100 | > 100 | > 100 |  |  | > 100 |  | 
7 | COc1cc2c(c(OC)c1)C(=O)C(=O)C(CC1(C)OCCCO1)=C2 | 4.72 | 19.6 | 20.2 | 30.1 | 17.9 | 4.41 | 22 | 17.2 | 27.4 | 20.4 | 24.3 | 30.2 | 35 | 28.3 | > 53.2 |  | 33.9 | 17 | 13.1
8 | CC(C)OP(=O)(OC(C)C)/C(=N/Nc1ccc([N+](=O)[O-])cc1)NNC(=O)c1ccccc1 | 55.4 | > 100 | 36.5 | 70.4 | > 100 | 61.3 | > 100 | > 100 | > 100 | > 100 | 79.3 |  |  | > 100 | > 100 | 50.9 | > 100 | > 100 | > 100
9 | CC1=C(N2CC2)C(=O)C(C)=C(N2CC2)C1=O | 3.3 | 1.18 | 0.466 | 0.362 | 0.445 | 0.988 | 0.622 | 1.5 | 2.77 | 0.541 | 0.19 | 2.9 | 1 | 75.7 | 8.33 | 5.72 | 1.57 | 3.31 | 1.37
10 | CCCCCCCC(=O)OC(COC(=O)Cc1ccccc1)COC(=O)C(C)(C)C (stereo not given) | > 100 | > 100 | > 100 | > 100 | > 100 | > 100 | > 100 | > 100 |  | > 100 | > 100 | > 100 |  | > 100 | > 100 | > 100 |  | > 100 | > 100
11 | C[C@H]1[C@H](C)CC[C@]2(C(=O)O)CCC3(COC(=O)/C=C/c4ccc(O)cc4)C(=CCC4[C@@]5(C)CC[C@H](O)C(C)(C)C5CC[C@]43C)[C@H]12 (stereo not given in full) | 17.3 | 23.4 | 23 | 18.2 | 13.1 |  | 16 | 22.3 | 31.5 | 37.2 |  | 6.99 | 18.6 | 10.3 | 22.5 | 64.3 | 23.8 | 15.7 | 22.1
